From patent US10532066B2, “Surfactant lipids, compositions thereof, and uses thereof” (National Jewish Health, priority 2007, dated 2020)
“Also recorded” adds a separate entry of the source.

Key:
[1] = tested on: primary rat alveolar macrophages; assay: LPS-induced NO production by rat alveolar macrophages; assay type: cell-based; conditions: LPS 10 ng/ml, 24 h, liposomes; LPS without phospholipid = 100%
Method: FIG. 1. Anionic phospholipids inhibit inflammatory mediator production induced by LPS. Liposomes composed of sphingomyelin (SM), phosphatidylethanolamine (PE) dipalmitoyl-phosphatidylcholine ((DPPC), phosphatidylserine (PS), palmitoyl-oleoyl-phosphatidylglycerol (POPG) and phosphatidylinositol (PI) were formed by bath-sonication for 30 min at room temperature. LPS (10 ng/ml) and different concentrations of phospholipids were added to monolayer cultures of differentiated U937 cells (A), or primary rat alveolar macrophages (B). At 6 h after stimulation, media were collected and secreted TNF-α levels were determined in U937 cultures. NO production was determined 24 h after stimulating rat alveolar macrophages. LPS stimulation in the absence of phospholipid was set as 100%. […] The average TNF-α production upon LPS stimulation was (8.0±0.54 ng/ml). The average NO production upon LPS stimulation was 12.17±0.27 μM.
FIG. 2. The inhibitory effect of phosphatidylglycerols on LPS-induced inflammatory mediator production is molecular species specific. PG liposomes were formed by bath-sonication for 30 min at room temperature. LPS (10 ng/ml) and different concentrations of PG were added to monolayer cultures of differentiated U937 cells (A) or rat alveolar macrophages (B). Media TNF-α measurements were performed 6 h after stimulation. Media NO measurements were performed 24 h after stimulation. LPS stimulation without PG was set at 100%. The molecular species of PG shown on the graph are 8:0; dioctanoyl-phosphatidylglycerol, 12:0; dilauroyl-phosphatidylglycerol (DLPG), 14:0; dimyristoyl-phosphatidylglycerol (DMPG), 16:0; dipalmitoyl-phosphatidylglycerol (DPPG), 18:0; distearoyl-phosphatidylglycerol, 16:0/18:1; palmitoyl-oleoyl-phosphatidylglycerol (POPG). […] The average TNF-α production upon LPS stimulation was 11.3±0.7 ng/ml. The average NO production upon LPS stimulation was 10.1±0.6 μM.
Rat alveolar macrophages were isolated from bronchoalveolar lavage fluid (BALF) of Sprague-Dawley rats. The lungs were lavaged with pyrogen-free saline, and alveolar macrophages were sedimented by centrifugation at 150×g×5 min. Isolated macrophages were plated at 5×10^5 cells/well in 24-well plates (Falcon) in RPMI 1640 medium containing 10% BGS. The cells were allowed to adhere for 2 h and then used for the experiments after washing with phosphate-buffered-saline (PBS) to remove the unattached cells.
Nitric oxide (NO) accumulation in the supernatant was determined as previously reported (28). Briefly, rat alveolar macrophages were stimulated with LPS (10 ng/ml) or LPS plus phospholipids for 24 h. Culture supernatants (usually […]) were combined with an equal volume of Greiss reagent, and the samples were incubated at room temperature for 10 min before the absorbance was quantified at 550 nm. With the use of a standard curve, the nmol of NO produced were determined and normalized to total cell number in each sample.

[2] = tested on: human alveolar macrophages; assay: LPS-induced TNF-α production by primary human alveolar macrophages; assay type: cell-based; conditions: LPS 10 ng/ml, phospholipids 20 μg/ml, 6 h
Method: (§1) FIG. 8. POPG, DMPG and PI antagonize the effects of LPS on primary human alveolar macrophages. Human alveolar macrophages were isolated from healthy volunteer BALF and plated onto a 96-well plate. Two days after plating, 10 ng/ml of LPS and 20 μg/ml of phospholipids were added to monolayer cultures of human alveolar macrophages. 6 h after stimulation, media were collected and TNF-α production was determined by ELISA. LPS stimulation without phospholipid was set at 100%. […] The average TNF-α secretion after LPS stimulation was 30.7±15.1 ng/ml. Significance—**: p<0.01, when compared with LPS stimulation in the absence of POPG.
Human alveolar macrophages were isolated from BALF of healthy volunteers using protocols reviewed and approved by the National Jewish Medical Research Center IRB and the University of Colorado General Clinical Research Center. The lungs were lavaged with pyrogen-free saline, and alveolar macrophages were sedimented by centrifugation at 150×g×5 min. Isolated macrophages were plated at 5×10^4 cells/well in 96-well plates (Falcon) in RPMI 1640 medium containing 10% BGS. The cells were allowed to adhere for 48 h and then used for the experiments after washing with PBS to remove the unattached cells.
U937 cells were induced to differentiate by treatment with 10 nM phorbol myristate acetate (PMA) for 48 h. The cells (1.3×10^5/well) were placed in 96-well plates and further incubated in the absence of PMA for 24 h in RPMI 1640 medium containing 10% BGS. Rat alveolar macrophages (5×10^5/well) were incubated in 24-well plates for 2 h after isolation. The indicated concentration of phospholipids was added to the cultures 30 min before adding LPS. After LPS addition cultures were incubated for 6 h at 37° C. at an atmosphere of 95% air and 5% CO2. At the end of the incubation period the medium was collected and assayed for TNF-α concentrations using an ELISA kit.
as §1, with “Human” for “FIG. 8. POPG, DMPG and PI antagonize the effects of LPS on primary human alveolar macrophages. Human”, “phospholipids (POPG, DMPG and PI)” for “phospholipids”

CD14 binding to LPS = molecular target: T1, CD14 binding to LPS (Homo sapiens, UniProt P08571); assay: Phospholipid competition for CD14 binding to solid phase LPS; conditions: CD14 1 μg/ml, liposomes 20 μg/ml
T1 construct: purchased Cell Sciences Inc. (Canton, Mass.)
T1 sequence (P08571 20-345): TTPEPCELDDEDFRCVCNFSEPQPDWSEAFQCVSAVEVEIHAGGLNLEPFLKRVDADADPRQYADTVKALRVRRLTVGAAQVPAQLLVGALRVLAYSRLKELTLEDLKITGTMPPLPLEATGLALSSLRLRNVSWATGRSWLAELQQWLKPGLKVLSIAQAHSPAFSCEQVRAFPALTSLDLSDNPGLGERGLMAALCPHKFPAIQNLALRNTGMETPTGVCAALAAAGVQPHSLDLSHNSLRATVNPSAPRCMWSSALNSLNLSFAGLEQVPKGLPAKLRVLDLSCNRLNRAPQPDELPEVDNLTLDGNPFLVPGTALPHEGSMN
Method: FIG. 13. PG Inhibits CD14 binding to solid phase LPS. (A) Various types of PG were coated onto microtiter plates, and incubated with CD14 (1 μg/ml) at 37° C. for 1 h. […] Types of PG shown on the graph are: dilauroylphosphatidylglycerol (DLPG), dimyristoyl-phosphatidylglycerol (DMPG), dipalmitoylphosphatidylglycerol (DPPG), and 16:0/18:1; palmitoyl-oleoyl-phosphatidylglycerol (POPG). […] The binding of CD14 to LPS was detected using anti-CD14 monoclonal antibody. The ELISA based absorbance of CD14 bound to LPS was defined as 100%.

Compound	LPS-induced NO production [1]	LPS-induced TNF-α production [2]	LPS-induced TNF-α production ([2]; listed as dimyristoyl PG)	inhibition of CD14 binding to solid phase LPS (CD14 binding to LPS)
CCCCCCCCCCCCCC(=O)OCC(COP(=O)(O)OCC(O)CO)OC(=O)CCCCCCCCCCCCC (stereo not drawn) [DMPG, dimyristoyl-phosphatidylglycerol]	as potent as POPG	antagonize	markedly attenuate	most effective inhibitors
CCCCCCCCCCCCCCCC(=O)OC[C@H](COP(=O)([O-])OCC[N+](C)(C)C)OC(=O)CCCCCCCCCCCCCCC [DPPC, dipalmitoyl-phosphatidylcholine, reference compound]	no significant effect	no significant effect		
CCCCCCCCCCCCCCCC(=O)OCC(COP(=O)(O)OCC(O)CO)OC(=O)CCCCCCCCCCCCCCC (stereo not drawn) [DPPG, dipalmitoyl-phosphatidylglycerol, reference compound]	failed to antagonize	no significant effect		weakly competes
CCCCCCCC/C=C\CCCCCCCC(=O)O[C@H](COC(=O)CCCCCCCCCCCCCCC)COP(=O)(O)OCC(O)CO (stereo partly drawn) [POPG, palmitoyl-oleoyl-phosphatidylglycerol]	significantly attenuated	markedly attenuate; also recorded: antagonize		almost completely inhibits; also recorded: most effective inhibitors
phosphatidylinositol [PI]	significantly attenuated	markedly attenuate; also recorded: antagonize		fails to compete
